“And” between values parts separate entries of the source, which are not always exact repeats. Equal values may be shown once. Inconclusive results and toxic doses are left out. No stated cut-off is given here; in the data, active means T/C of 150% or more; inactive means T/C below 125%.
Test system: L1210 leukemia ip in BDF1 mice, survival T/C
Assay: NCI In Vivo Anticancer Drug Screen. Data for tumor model L1210 Leukemia (intraperitoneal) in B6D2F1 (BDF1) mice
Conditions: endpoint: mean survival time, higher = longer survival
In short: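 Survival endpoint. Drug-treated group vs vehicle group, expressed as T divided by C. Tumor passaged by transplantation.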

[1] = dose: 100.0 mg/kg/injection, schedule: Q01DX001 (ip), vehicle: carboxymethylcellulose (CMC)
[2] = dose: 200.0 mg/kg/injection, schedule: Q01DX001 (ip), vehicle: carboxymethylcellulose (CMC)

Measured: T/C

O=C(Nc1cccc2ccccc12)c1ccc(C(=O)Nc2cccc3ccccc23)c(C(=O)O)c1
inactive: dose: 50.0 mg/kg/injection, schedule: Q04DX002 (ip), vehicle: gum acacia 94 % of control | dose: 100.0 mg/kg/injection, schedule: Q04DX002 (ip), vehicle: gum acacia 90 % of control | dose: 200.0 mg/kg/injection, schedule: Q04DX002 (ip), vehicle: gum acacia 94 % of control

Cn1c(=O)c(=O)n(C)c2cc(Cl)c(Cl)cc21
inactive: [1] 94 % of control | [2] 105 % of control

O=Cc1cc(O)c(O)c(Br)c1
inactive: dose: 75.0 mg/kg/injection, schedule: Q04DX003 (ip), vehicle: saline 100 % of control | dose: 150.0 mg/kg/injection, schedule: Q04DX003 (ip), vehicle: saline 87 % of control | dose: 300.0 mg/kg/injection, schedule: Q04DX003 (ip), vehicle: saline 98 % of control

CCOC(=O)C1CC2CC(C1=O)C2(C)C (stereo not drawn)
inactive: dose: 100.0 mg/kg/injection, schedule: Q04DX003 (ip), vehicle: saline with Tween-80 96 % of control | dose: 200.0 mg/kg/injection, schedule: Q04DX003 (ip), vehicle: saline with Tween-80 101 % of control | dose: 400.0 mg/kg/injection, schedule: Q04DX003 (ip), vehicle: saline with Tween-80 93 % of control

O=N[C@H]1C2CC([C@@H]1Cl)[C@@H]1CC=C[C@H]21 (stereo partly drawn)
inactive: dose: 50.0 mg/kg/injection, schedule: Q01DX001 (ip), vehicle: carboxymethylcellulose (CMC) 95 % of control | [1] 101 % of control | [2] 95 % of control

c1ccc2c3c(ccc2c1)OCCCCCOc1ccc2ccccc2c1-c1c(ccc2ccccc12)OCCOCCOc1ccc2ccccc2c1-3
inactive: dose: 100.0 mg/kg/injection, schedule: Q01DX001 (ip), vehicle: saline with Tween-80 92 % of control | dose: 200.0 mg/kg/injection, schedule: Q01DX001 (ip), vehicle: saline with Tween-80 92 % of control | dose: 400.0 mg/kg/injection, schedule: Q01DX001 (ip), vehicle: saline with Tween-80 98 % of control

CN(C)C(=N)CSS(=O)(=O)O
inactive: dose: 100.0 mg/kg/injection, schedule: Q04DX002 (ip), vehicle: Klucel (hydroxypropylcellulose) (HPC) 90 % of control | dose: 200.0 mg/kg/injection, schedule: Q04DX002 (ip), vehicle: Klucel (hydroxypropylcellulose) (HPC) 101 % of control

C(=C\c1ccccc1)/CN1CCOCC1
inactive: dose: 25.0 mg/kg/injection, schedule: Q04DX002 (ip), vehicle: saline 94 % of control | dose: 50.0 mg/kg/injection, schedule: Q04DX002 (ip), vehicle: saline 94 % of control | dose: 100.0 mg/kg/injection, schedule: Q04DX002 (ip), vehicle: saline 105 % of control

N=C(N)c1ccc(C(=N)N)cc1
inactive: dose: 25.0 mg/kg/injection, schedule: Q01DX009 (ip), vehicle: water 95 % of control | dose: 50.0 mg/kg/injection, schedule: Q01DX009 (ip), vehicle: water 95 % of control and 99 % of control | dose: 100.0 mg/kg/injection, schedule: Q01DX009 (ip), vehicle: water 97 % of control and 103 % of control

CC(C)=CCC/C(C)=C\C1N(C)CCCN1C
inactive: dose: 25.0 mg/kg/injection, schedule: Q01DX009 (ip), vehicle: saline with Tween-80 92 % of control | dose: 25.0 mg/kg/injection, schedule: Q04DX003 (ip), vehicle: saline with Tween-80 98 % of control | dose: 50.0 mg/kg/injection, schedule: Q01DX009 (ip), vehicle: saline with Tween-80 88 % of control | dose: 50.0 mg/kg/injection, schedule: Q04DX003 (ip), vehicle: saline with Tween-80 92 % of control

O=C1CCC(=O)N1CC(O)COc1ccccc1 (stereo not drawn)
inactive: dose: 100.0 mg/kg/injection, schedule: Q01DX009 (ip), vehicle: saline with Tween-80 101 % of control | dose: 100.0 mg/kg/injection, schedule: Q04DX003 (ip), vehicle: Klucel (hydroxypropylcellulose) (HPC) 93 % of control | dose: 200.0 mg/kg/injection, schedule: Q01DX009 (ip), vehicle: saline with Tween-80 101 % of control | dose: 200.0 mg/kg/injection, schedule: Q04DX003 (ip), vehicle: Klucel (hydroxypropylcellulose) (HPC) 97 % of control | dose: 400.0 mg/kg/injection, schedule: Q01DX009 (ip), vehicle: saline with Tween-80 110 % of control | dose: 400.0 mg/kg/injection, schedule: Q04DX003 (ip), vehicle: Klucel (hydroxypropylcellulose) (HPC) 106 % of control

Cc1cccc(-c2nc3ncnc(N)c3[nH]2)c1
inactive: dose: 6.25 mg/kg/injection, schedule: Q01DX001 (ip), vehicle: saline with Tween-80 95 % of control | dose: 12.5 mg/kg/injection, schedule: Q01DX001 (ip), vehicle: saline with Tween-80 97 % of control | dose: 25.0 mg/kg/injection, schedule: Q01DX001 (ip), vehicle: saline with Tween-80 101 % of control

— PubChem BioAssay AID248 (DTP/NCI, 2004)
